Patent US9193699B2, “Apoptosis inducing compounds” (INSTITUT NATIONAL DE LA SANTE ET DE LA RECHERCHE MEDICALE …, priority 2011, dated 2015)

Key:
Assay type in all cases: cell-based
[1] = test system: caspase-3 and caspase-7 in SUM149 cells; assay: Caspase 3/7 activation (Caspase-Glo 3/7) in SUM149 tumor cells; settings: Homo sapiens, R=RLU at 20 μM/RLU at 0 μM, 24 h, read-out: Caspase 3/7 activation R (RLU fold increase from untreated cells)
Method: (§1) Human breast tumor SUM149 cells were plated in a 96 well plate at 10000 cells/100 μL at 37° C. in 5% CO2. Serial dilutions of drugs (compounds 1, 3 or 4) ranging from 20 μM to 300 nM were added at day 0. Active caspase-3 and caspase-7 were measured in triplicate after 24 h treatment by incubating 50 μL of the Caspase-Glo 3/7 reagent for 60 min at 25° C. This reagent containing the proluminescent tetrapeptide sequence DEVD in a cell lysis buffer (Promega) (FIG. 6).
(§2) Caspase 3/7 activation in SUM149 and L226 tumor cells was measured.
(§3) The calculated values R correspond to Relative Luminescence Units (RLU) fold increase from untreated cells (R=RLU at 20 μM/RLU at 0 μM).

[2] = test system: Human normal mammary epithelial HME-1 cells; assay: Effect on growth of normal cells (alamar blue), HME-1; settings: HME1, calculated on the basis of cell growth inhibition
Method: (§4) All biological experiments (Examples 2 to 9) have been performed with recommended cell line specific culture medium. For SUM149 and L226, culture medium is supplemented with 10% Fetal Calf Serum. For HME-1 and MCF-10A, culture medium is supplemented with 5% Horse Serum.
(§5) Human normal mammary epithelial HME-1 cells were plated in a 96 well plate at 3000 cells/100 μL at 37° C. in 5% CO2. Serial dilutions of drugs (compounds 1, 3 or 4) ranging from 20 μM to 300 nM were added at day 0 and day 3. The number of viable cells was determined in triplicate at day 5 by incubating 10 μL of the alamar blue staining solution for 2 hours at 37° C. (FIG. 4).
(§6) IC50 values of compounds 1-14 for the inhibition of MCF-10A and HME-1 normal cells growth were also measured (according to the experimental procedure of Examples 4 and 5): […]

[3] = test system: caspase-3 and caspase-7 in L226 cells; assay: Caspase 3/7 activation (Caspase-Glo 3/7) in L226 tumor cells; settings: Homo sapiens, R=RLU at 20 μM/RLU at 0 μM, 24 h, read-out: Caspase 3/7 activation R (RLU fold increase from untreated cells)
Method: as §1, with “L226” for “SUM149”, “7).” for “6).”
as §2, §3

[4] = test system: caspase-3 and caspase-7 in HME-1 cells; assay: Caspase 3/7 activation (Caspase-Glo 3/7) in HME-1 normal cells; settings: Homo sapiens, HME1, R=RLU at 20 μM/RLU at 0 μM, 24 h, read-out: Caspase 3/7 activation R (RLU fold increase from untreated cells)
Method: as §1, with “normal mammary epithelial HME-1” for “breast tumor SUM149”, “8).” for “6).”
as §3
(§7) Caspase 3/7 activation in MCF-10A and HME-1 normal cells was also measured.

[5] = test system: Human normal mammary epithelial MCF-10A cells; assay: Effect on growth of normal cells (alamar blue), MCF-10A; settings: calculated on the basis of cell growth inhibition
Method: as §4
as §5, with “MCF-10A” for “HME-1”, “5).” for “4).”
as §6

[6] = test system: caspase-3 and caspase-7 in MCF-10A cells; assay: Caspase 3/7 activation (Caspase-Glo 3/7) in MCF-10A normal cells; settings: Homo sapiens, R=RLU at 20 μM/RLU at 0 μM, 24 h, read-out: Caspase 3/7 activation R (RLU fold increase from untreated cells)
Method: as §1, with “normal mammary epithelial MCF-10A” for “breast tumor SUM149”, “9).” for “6).”
as §3, §7

[7] = test system: Human breast tumor L226 cells; assay: Inhibition of tumor cell growth (alamar blue), L226; settings: 120 h, calculated on the basis of cell growth inhibition, day 5, alamar blue
Method: as §4
(§8) Human breast tumor L226 cells (Inflammatory Breast Cancer (IBC) of ERB-B2 subtype) were plated in a 96 well plate at 3000 cells/100 μL at 37° C. in 5% CO2. Serial dilutions of drugs (compounds 1, 3 or 4) ranging from 20 μM to 300 nM were added at day 0 and day 3. The number of viable cells was determined in triplicate at day 5 by incubating 10 μL of the alamar blue staining solution for 2 hours at 37° C. (FIG. 3).
IC50 values of compounds 1-14 for the inhibition of SUM149 and L226 tumor cells growth were measured (according to the experimental procedure of Examples 2 and 3): […]

[8] = test system: Human breast tumor SUM149 cells; assay: Inhibition of tumor cell growth (alamar blue), SUM149; settings: 120 h, calculated on the basis of cell growth inhibition, day 5, alamar blue, read-out: IC50 for the inhibition of SUM149 tumor cells growth
Method: as §4
as §8, with “SUM149” for “L226”, “basal” for “ERB-B2”, “Compounds” for “Serial dilutions of drugs (compounds”, “3, 4, 5, 6, 7, 8, 9, 10, 11, 12, 13, 14 at 10” for “3 or 4) ranging from 20”, “μM” for “μM to 300 nM”, “1).” for “3).”
as §5, with “breast tumor SUM149” for “normal mammary epithelial HME-1”, “2).” for “4).”
IC50 values of compounds 1-14 for the inhibition of SUM149 and L226 tumor cells growth were measured (according to the experimental procedure of Examples 2 and 3):
Human breast tumor SUM149 cells were plated in a 96 well plate at 3000 cells/100 μL at 37° C. in 5% CO2 in recommended medium containing 10% FCS or in synthetic medium without FCS. Serial dilutions of drug (compound 4) ranging from 10 μM to 0.16 μM were added at day 0 and day 3. The number of viable cells was determined in triplicate at day 5 by incubating 10 μL of the alamar blue staining solution for 2 hours at 37° C. (FIG. 11). The […] in recommended medium containing 10% FCS was measured at 2 μM, while it was measured at 0.6 μM without FCS.

Cancer stem cells (CSCs) = assay: Aldefluor assay of cancer stem cells (ALDH+ cells), FACS; settings: FIG. 12B
Method: Cancer stem cells (CSCs) are thought to contribute to tumor initiation, maintenance, resistance to therapy, and metastasis progression. Treatment with drugs enrich in resistant CSCs. In vitro, breast CSCs express high level of aldehyde dehydrogenase-1 (ALDH1), which can be detected by using a commercial assay (CSCs are “Aldefluor” positive). Briefly, cells were incubated in Aldefluor assay buffer containing ALDH substrate (BAAA (BODIPY®—aminoacetaldehyde), 1 μmol/L per 1×10^6 cells). Negative control was done in the presence of diethylaminobenzaldehyde (DEAB), a specific ALDH inhibitor. Cells were then incubated for 40 min at 37° C. Cells were analyzed with the LSRII flow cytometer (Becton-Dickinson). PI (Propidium Iodide) exclusion was used to gate viable cells.

Row | IC50 [7] [µM] | IC50 [8] [µM] | SMILES | fold induction at 20 µM [1] | IC50 [2] [µM] | fold induction at 20 µM [3] | fold induction at 20 µM [4] | IC50 [5] [µM] | fold induction at 20 µM [6] | aldefluor ratio (percent ALDH+ cells treated vs DMSO) (Cancer stem cells (CSCs))
1 | 5 | 2.5 | CC1(C)SCCN(S(=O)(=O)c2ccc(C(F)(F)F)cc2)[C@H]1C(=O)NO [Compound 6, (3S)—N-hydroxy-4-[(4-trifluoromethylphenyl)sulfonyl]-2,2-dimethyl-3-thiomorpholine carboxamide] | 5.9 | > 20 | 2.8 | 0.9 | > 20 | 1 | 
2 | 3.5 | 2.5 | CCCCCCCCCCCCc1ccc(S(=O)(=O)N2CCSC(C)(C)C2C(=O)NO)cc1 [Compound 10, (3S)—N-hydroxy-4-[(4-dodecyl)phenylsulfonyl]-2,2-di methyl-3-thiomorpholine carboxamide] | 5.5 | > 20 | 8.9 | 0.8 | 20 | 1.1 | 
3 | 20 | 2.5 | CC1(C)SCCN(S(=O)(=O)c2ccc(CBr)cc2)[C@H]1C(=O)NO [Compound 5, (3S)—N-hydroxy-4-[(4-bromomethylphenyl)sulfonyl]-2,2-dimethyl-3-thiomorpholine carboxamide] | 5.5 | > 20 | 3.2 | 1.1 | > 20 | 1 | 
4 | > 20 | 20 | CC1(C)SCCN(S(=O)(=O)c2ccccc2)[C@H]1C(=O)NO [Compound 1, (3S)—N-hydroxy-4-(benzenesulfonyl)-2,2-dimethyl-3-thiomorpholine carboxamide] | 1 | > 20 | 1 | 1 | > 20 | 1 | 
5 | 2.5 | 2.5 | Cc1cc(C)c(S(=O)(=O)N2CCSC(C)(C)[C@@H]2C(=O)NO)c(C)c1 [Compound 11, (3S)—N-hydroxy-4-[(2,4,6-trimethylphenyl)sulfonyl]-2,2-dimethyl-3-thiomorpholine carboxamide] | 6.4 | > 20 | 8.7 |  | 20 |  | 
6 |  | 5 | Cc1cc(C)cc(S(=O)(=O)N2CCSC(C)(C)[C@@H]2C(=O)NO)c1 [Compound 14, (3S)—N-hydroxy-4-[(3,5-dimethylphenyl)sulfonyl]-2,2-dimethyl-3-thiomorpholine carboxamide] |  |  |  | 1.1 |  | 1.1 | 
7 |  | 20 | CC1(C)SCCN(S(=O)(=O)c2ccc(F)cc2)[C@H]1C(=O)NO [Compound 7, (3S)—N-hydroxy-4-[(4-fluorophenyl)sulfonyl]-2,2-dimethyl-3-thiomorpholine carboxamide] |  |  |  |  |  |  | 
8 |  | 10 | CC1(C)SCCN(S(=O)(=O)CC(c2ccccc2)c2ccccc2)[C@H]1C(=O)NO [Compound 9] |  |  |  |  |  |  | 
9 |  |  | COc1cccc2c1C(=O)c1c(O)c3c(c(O)c1C2=O)C[C@@](O)(C(=O)CO)C[C@@H]3O[C@H]1C[C@H](N)[C@H](O)[C@H](C)O1 [doxorubicin, reference compound] |  |  |  |  |  |  | increases it
10 | 2.5 | 2.5 | CCCc1ccc(S(=O)(=O)N2CCSC(C)(C)[C@@H]2C(=O)NO)cc1 [Compound 13, (3S)—N-hydroxy-4-[(4-propylphenyl)sulfonyl]-2,2-dimethyl-3-thiomorpholine carboxamide] | 5.4 | > 20 | 5.8 | 1.2 | > 20 | 1.1 | 
